Results on 13 molecules are retold here after patent publication US8354398B2, “Substituted isoxazole compounds” (Bristol-Myers Squibb Company, priority 2009, dated 2013).

Where a name gives a salt, the structure may show the parent alone.

The target in experiment [1] is T1, S1P1 (Homo sapiens, UniProt P21453). Put plainly: S1P1 Binding Assay (33P-S1P ligand competition, membranes from CHO cells). Details: expressed in transfected cells; host or cells: CHO cells. The settings on record: membranes of CHO cells expressing human S1P1; 0.03 nM 33P-S1P; 60 min room temperature. On the procedure: Membranes were prepared from CHO cells expressing human S1P1. Cells were dissociated in buffer containing 20 mM HEPES, pH 7.5, 50 mM NaCl, 2 mM EDTA and Protease Inhibitor cocktail (Roche), and disrupted on ice using the Polytron homogenizer. The homogenate was centrifuged at 20,000 rpm (48,000 g) and the supernatant was discarded. The membrane pellets were resuspended in buffer containing 50 mM HEPES, pH 7.5, 100 mM NaCl, 1 mM MgCl2, 2 mM EDTA and stored in aliquots at −80° C. after protein concentration determination.
Membranes (2 μg/well) and 0.03 nM final concentration of ^33P-S1P ligand (1 mCi/ml, American Radiolabeled Chemicals) were added to the compound plates. Binding was performed for 60 min at room temperature, terminated by collecting the membranes onto GF/B filter plates, and radioactivity was measured by TOPCOUNT®. The competition data of the test compounds over a range of concentrations was plotted as percentage inhibition of radioligand specific binding. The IC50 is defined as the concentration of competing ligand needed to reduce specific binding by 50%.
Compounds of the present invention and Comparative Compound A were tested in the S1P1 binding assay described hereinabove and the results rounded to two digits, shown in Table A were obtained. In some instances, the value is an average of multiple experiments where N is the number of experiments conducted that provided satisfactory dose response curves. When more than one batch of an example was tested, the value presented is from the batch which allowed a comparison of GTPγS S1P1 and GTPγS S1P3 in Method A (Data shown in Table B). Data was not averaged across different batches of an example compound.

Experiment [2] addresses S1P3 (Homo sapiens, UniProt Q99500). Put plainly: Method A: Receptor [35S] GTPγS Binding Assay, membranes from EDG3-Ga15-bla HEK293T cells. Details: expressed in transfected cells; host or cells: EDG3-Ga15-bla HEK293T cells. The format is biochemical. The settings on record: EDG3-Ga15-bla HEK293T cell membranes. On the procedure: (§1) Compounds were loaded in a 384 Falcon v-bottom plate (0.5 μl/well in a 3-fold dilution). Membranes prepared from S1P1/CHO cells or EDG3-Ga15-bla HEK293T cells were added to the compound plate (40 μl/well, final protein […]) with MULTIDROP®. [^35S]GTP (1250 Ci/mmol, Perkin Elmer) was diluted in assay buffer: 20 mM HEPES, pH7.5, 10 mM MgCl2, 150 mM NaCl, 1 mM EGTA, 1 mM DTT, 10 μM GDP, 0.1% fatty acid free BSA, and 10 mg/ml Saponin to 0.4 nM. 40 μl of the [^35S] GTP solution was added to the compound plate with a final concentration of 0.2 nM. The reaction was kept at room temperature for 45 min. At the end of incubation, all the mixtures in the compound plate were transferred to a 384 well FB filter plates via GPCR robot system. The filter plate was washed with water 4 times by using the modified manifold Embla plate washer and dried at 60° C. for 45 min. 30 μl of MicroScint 20 scintillation fluid was added to each well for counting at Packard TOPCOUNT®. EC50 is defined as the agonist concentration that corresponds to 50% of the Ymax (maximal response) obtained for each individual compound tested.
(§2) Compounds of the present invention and Comparative Compound A were tested in the Receptor [^35S] GTPγS Binding Assays (Method A) and Receptor [35S] In some instances, the value is an average of multiple experiments where N is the number of experiments conducted that provided satisfactory dose response curves. When more than one batch of an example was tested, the value presented is from a batch which allowed a comparison of GTPγS S1P1 and GTPγS S1P3 in which the most number of experiments were performed. Preferably, the same batch was examined in Method A and Method B. Data was not averaged across different batches of an example compound.

Experiment [3] has as its target T1, S1P1. In words: Method A: Receptor [35S] GTPγS Binding Assay, membranes from S1P1/CHO cells. The experiment is classed as biochemical. Set-up: expressed in transfected cells; host or cells: S1P1/CHO cells. The settings on record: for EC50: Method A, S1P1/CHO cell membranes; for GTPγS S1P3/S1P1 (Method A): ratio of GTPγS S1P3 EC50 to GTPγS S1P1 EC50, Method A. On the procedure: as §1, §2
(GTPγS is a poorly hydrolysed GTP analogue; its binding reports G protein activation.)

Experiment [4] addresses T1, S1P1. In words: Method B: Receptor [35S] GTPγS SPA Binding Assay, membranes from S1P1 transfected CHO cells. Details: expressed in transfected cells; host or cells: S1P1/CHO cells. The format is biochemical. The settings on record: Method B SPA; S1P1 transfected CHO cell membranes; NC = a satisfactory dose response curve was not obtained. Here is the method: Membranes prepared from S1P1 or S1P3 transfected CHO cells (2 μg protein) were incubated in 96-well white plates (CORNING® 3693) with test compounds diluted in DMSO, in 50 μl of reaction mixture containing 7.5 μl WGA-PVT beads (20 mg/ml), and 5 μM GDP, 20 mM HEPES pH 7.4, 100 mM NaCl, 1 mM EDTA, 5 mM MgCl2, 10 μg/ml saponin, 0.1% BSA, and 1 μM leupeptin. The assay was initiated with the addition of 25 μl of 0.2 nM [^35S]-GTPγS (1250 Ci/mmol; NEN) in assay buffer. After 90 min incubation at room temperature, spin the plate at 1000 rpm for 5 min. The bound radionuclides were measured at TOPCOUNT®, expressed as % response relative to S1P (1 μM) activation. Data was analyzed using the four parameter logistic equation in Excel. The four parameters in the equation, Y=A+((B−A)/(1+((EC50/X)^D))), are described as following: A is the Y value (agonist activity) at the bottom plateau; B is the Y value at the top plateau; EC50 is the X value (agonist concentration) when the response is halfway between bottom and top; D is Hill coefficient. Curves were not generated for compounds having Ymax values were below 50%.
as §2

S1P3, sequence (Q99500 whole entry): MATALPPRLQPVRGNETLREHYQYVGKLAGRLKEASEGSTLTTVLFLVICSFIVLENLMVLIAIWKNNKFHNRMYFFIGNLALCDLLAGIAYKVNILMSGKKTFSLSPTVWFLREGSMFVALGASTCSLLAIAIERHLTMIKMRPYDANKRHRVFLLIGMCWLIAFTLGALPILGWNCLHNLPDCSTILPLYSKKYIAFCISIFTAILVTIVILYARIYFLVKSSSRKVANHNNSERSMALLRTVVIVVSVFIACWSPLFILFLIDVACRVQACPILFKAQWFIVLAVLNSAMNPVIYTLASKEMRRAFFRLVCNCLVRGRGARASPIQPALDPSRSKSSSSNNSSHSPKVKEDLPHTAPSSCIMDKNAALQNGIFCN
T1 sequence (P21453 whole entry): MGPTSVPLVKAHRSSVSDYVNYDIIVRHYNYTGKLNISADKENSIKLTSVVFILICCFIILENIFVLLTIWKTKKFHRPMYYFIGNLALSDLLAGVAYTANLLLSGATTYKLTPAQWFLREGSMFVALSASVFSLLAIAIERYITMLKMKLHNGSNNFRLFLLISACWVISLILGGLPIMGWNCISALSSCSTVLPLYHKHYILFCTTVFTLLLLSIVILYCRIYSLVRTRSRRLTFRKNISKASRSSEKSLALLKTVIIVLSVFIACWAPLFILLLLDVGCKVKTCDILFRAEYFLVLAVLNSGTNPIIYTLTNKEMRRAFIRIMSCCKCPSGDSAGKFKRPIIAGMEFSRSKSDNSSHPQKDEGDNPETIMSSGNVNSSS

A word on the IC50: it is the concentration needed to halve the response being measured. By EC50 is commonly meant the concentration at which the effect is half-maximal. Read a high EC50 as weaker potency. For `O=C(O)C1CN(Cc2ccc(-c3noc(-c4onc(-c5ccccc5)c4C(F)(F)F)n3)cc2F)C1` [Example 21, 1-(2-Fluoro-4-(5-(3-phenyl-4-(trifluoromethyl)isoxazol-5-yl)-1,2,4-oxadiazol-3-yl)benzyl)azetidine-3-carboxylic acid], the IC50 in experiment [1] turned out to be 0.32 nM. The results for the EC50 in experiment [2] and in experiment [3] were 1100 nM and 0.32 nM, respectively. Besides, in experiment [3], the “GTPγS S1P3/S1P1 (Method A)” value was 3,500.
For the molecule `Cc1cc(-c2noc(-c3onc(-c4ccccc4)c3C(F)(F)F)n2)ccc1CN1CC(C(=O)O)C1` [Example 22, 1-(2-methyl-4-(5-(3-phenyl-4-(trifluoromethyl)isoxazol-5-yl)-1,2,4-oxadiazol-3-yl)benzyl)azetidine-3-carboxylic acid], the IC50 in experiment [1] amounted to 0.55 nM. The EC50 in experiment [2] worked out at 1600 nM; in experiment [3], 0.52 nM. Besides, in experiment [3], the “GTPγS S1P3/S1P1 (Method A)” value is 3,000.
Taken in the same sequence, the figures for `O=C(O)C1CN(Cc2ccc(-c3noc(-c4noc(-c5ccccc5)c4-c4ccccc4)n3)c(C(F)(F)F)c2)C1` [Example 25, 1-(4-(5-(4,5-Diphenylisoxazol-3-yl)-1,2,4-oxadiazol-3-yl)-3-(trifluoromethyl)benzyl)azetidine-3-carboxylic acid, 2,2,2-trifluoroacetic acid salt] were 0.44 nM, 3400 nM, 9.2 nM and 371.
In the case of `O=C(O)C1CN(Cc2ccc(-c3noc(-c4noc(-c5ccccc5)c4C4CC4)n3)cc2)C1` [Example 6, 1-(4-(5-(4-Cyclopropyl-5-phenylisoxazol-3-yl)-1,2,4-oxadiazol-3-yl)benzyl)-azetidine-3-carboxylic acid, 2,2,2-trifluoroacetic acid salt], the EC50 worked out at 0.22 nM in experiment [4], 420 nM in experiment [2] and 5.6 nM in experiment [3]. Moreover, the IC50 in experiment [1] amounted to 0.043 nM. In addition, in experiment [3], the “GTPγS S1P3/S1P1 (Method A)” value is recorded as 75.
Turning to `CC(C)Cc1onc(-c2nc(-c3ccc(CN4CC(C(=O)O)C4)cc3)no2)c1C(F)(F)F` [Example 20, 1-(4-(5-(5-Isobutyl-4-(trifluoromethyl)isoxazol-3-yl)-1,2,4-oxadiazol-3-yl)benzyl)-azetidine-3-carboxylic acid], the IC50 in experiment [1] amounted to 0.15 nM. Further, in experiment [2], the response was half-maximal at 2200 nM (EC50). In experiment [3], the EC50 is 0.56 nM and the “GTPγS S1P3/S1P1 (Method A)” value was 3,900.
`CCC(F)(F)c1c(-c2nc(-c3ccc(CN4CC(C(=O)O)C4)cc3)no2)noc1-c1ccccc1` [Example 10, 1-(4-(5-(4-(1,1-Difluoropropyl)-5-phenylisoxazol-3-yl)-1,2,4-oxadiazol-3-yl)benzyl)azetidine-3-carboxylic acid, trifluoroacetic acid salt]: the EC50 was found to be 0.055 nM in experiment [4], 190 nM in experiment [2] and 0.84 nM in experiment [3]. Besides, the IC50 in experiment [1] came out at 0.055 nM. Further, the “GTPγS S1P3/S1P1 (Method A)” value in experiment [3] is 230.
`COC(=O)c1c(-c2ccccc2)noc1-c1nc(-c2ccc(CN3CC(C(=O)O)C3)cc2)no1` [Example 13, 1-(4-(5-(4-(Methoxycarbonyl)-3-phenylisoxazol-5-yl)-1,2,4-oxadiazol-3-yl)benzyl)azetidine-3-carboxylic acid, 2,2,2-trifluoroacetic acid salt] returned a half-inhibitory concentration (IC50) in experiment [1] of 0.094 nM. In addition, the EC50 in experiment [2] amounted to 1100 nM; in experiment [3] it was 1.9 nM. Moreover, in experiment [3], the “GTPγS S1P3/S1P1 (Method A)” value is given as 578.
Regarding `O=C(O)C1CN(Cc2ccc(-c3noc(-c4onc(-c5ccccc5)c4C(F)(F)F)n3)c(C(F)(F)F)c2)C1` [Example 24, 1-(4-(5-(3-phenyl-4-(trifluoromethyl)isoxazol-5-yl)-1,2,4-oxadiazol-3-yl)-3-(trifluoromethyl)benzyl)azetidine-3-carboxylic acid], in experiment [1], the IC50 was 1.56 nM. The figures for the EC50 in experiment [2] and in experiment [3] were 31000 nM and 6.4 nM, respectively. For the same molecule, in experiment [3], the “GTPγS S1P3/S1P1 (Method A)” value is on record as 4,900.
Taken in the same sequence, the figures for `CCc1c(-c2nc(-c3ccc(CN4CC(C(=O)O)C4)c(Br)c3)no2)noc1-c1ccccc1` [Example 5, 1-(2-Bromo-4-(5-(4-ethyl-5-phenylisoxazol-3-yl)-1,2,4-oxadiazol-3-yl)benzyl)azetidine-3-carboxylic acid] were 0.14 nM, 1700 nM, 5.3 nM and 320.
`O=C(O)C1CN(Cc2ccc(-c3noc(-c4onc(-c5ccccc5)c4C(F)(F)F)n3)c(Cl)c2)C1` [Example 23, 1-(3-chloro-4-(5-(3-phenyl-4-(trifluoromethyl)isoxazol-5-yl)-1,2,4-oxadiazol-3-yl)benzyl)azetidine-3-carboxylic acid] returned an IC50 in experiment [1] of 0.26 nM. For the same molecule, the EC50 in experiment [2] was found to be 8300 nM. Moreover, in experiment [3], the EC50 is 1.9 nM and the “GTPγS S1P3/S1P1 (Method A)” value was 4,400.
In experiment [1], `O=C(O)C1CN(Cc2ccc(-c3noc(-c4noc(-c5ccccc5)c4CCC(F)(F)F)n3)cc2)C1` [Example 8, 1-(4-(5-(5-Phenyl-4-(3,3,3-trifluoropropyl)isoxazol-3-yl)-1,2,4-oxadiazol-3-yl)benzyl)azetidine-3-carboxylic acid, 2,2,2-trifluoroacetic acid salt] showed an IC50 of 0.09 nM. Also, the EC50 in experiment [2] came out at 520 nM; in experiment [3], 3.7 nM. In addition, in experiment [3], the “GTPγS S1P3/S1P1 (Method A)” value worked out at 140.
As to `O=C(NCC(F)(F)F)c1c(-c2ccccc2)noc1-c1nc(-c2ccc(CN3CC(C(=O)O)C3)cc2)no1` [Example 15, 1-(4-(5-(3-Phenyl-4-(2,2,2-trifluoroethylcarbamoyl)isoxazol-5-yl)-1,2,4-oxadiazol-3-yl)benzyl)azetidine-3-carboxylic acid, 2,2,2-trifluoroacetic acid salt], the IC50 in experiment [1] is 6.5 nM. Further, the results for the EC50 in experiment [2] and in experiment [3] were 5100 nM and 29 nM, respectively. Besides, in experiment [3], the “GTPγS S1P3/S1P1 (Method A)” value came out at 175.
Taken in the same sequence, the figures for `O=C(O)c1c(-c2ccccc2)noc1-c1nc(-c2ccc(CN3CC(C(=O)O)C3)cc2)no1` [Example 16, 5-(3-(4-((3-Carboxyazetidin-1-yl)methyl)phenyl)-1,2,4-oxadiazol-5-yl)-3-phenylisoxazole-4-carboxylic acid] were 40 nM, 2050 nM, 112 nM and 18.
